Measured values: patent US20240408175A1, “BMP9 OR AN AGONIST THEREOF AND ITS USES RELATED TO REDUCING METASTASIS OF CANCER” (THE UAB RESEARCH FOUNDATION, priority 2021, published 2024)
Residues, ends and D or L forms follow the SMILES beside them. *: point of attachment. Cbz = O=C(OCc1ccccc1)*

What was measured:
SOX2 = SOX2 expression by Western blot / qRT-PCR in cancer cells; type: cell-based, human; settings: for recovery in SOX2 repression by BMP2: PA1, 1 h pretreatment (5 μM DM, 3 μM ML347); for recovery in SOX2 repression by BMP2 / effect on SOX2 repression by BMP2: then BMP2 24 h; for SOX2 protein and mRNA expression: attached and anchorage-independent conditions; for effect on SOX2 repression by BMP9: 1 h pretreatment (5 μM SB431542, 3 μM ML347, 0.8 μM LDN193189), then BMP9 24 hours; for effect on SOX2 repression by BMP2: PA1, 1 h pretreatment (5 μM SB431542, 0.8 μM LDN193189); for SOX2 protein and RNA levels: 10 nM, 24 hours, PA1 (and OVCAR3) cells
Procedure: Lysate and RNA preparation: 100,000-300,000 cells were seeded in a poly-HEMA coated 6-well plate for indicated times in full serum unless indicated otherwise. Cells were collected by centrifugation and lysed with trizol for RNA extraction or direct 2× lysis buffer for protein lysates.
Xenograft data were analyzed using parametric statistics as described in the legends. Survival curves were analyzed with log-rank statistics. In vitro experiments were analyzed using parametric statistics (ANOVA global test with Dunnett's/Sidak multiple comparison test as post-hoc tests as applicable and described in legend) and presented as the mean±SEM. All real time PCR's are relative semi quantitative RT-PCR's (hereby referred to as qRT-PCR) and are a combined quantitation of a minimum of 3 independent biological trials assayed in triplicate with biological replicates represented as individual scatter dots in the graphs or as indicated in legends. In all cases, statistical significance was set at a threshold of p<0.05. All statistical analyses were conducted with GraphPad Prism Software Ver. 9.0 and specific statistical test information described in figure legends.

SOX2 promoter = assay: Chromatin immunoprecipitation (ChIP) at SOX2 promoter regions; type: cell-based, human; settings: for SMAD3 occupancy at p1, p3, p4, p5, p6 (ChIP): 1 h treatment
Procedure: ChIP was carried out using a modified version of a previously described protocol (Medeiros et al., 2009). Cells were grown to 80% confluency in 150 mm culture dishes. Cells were fixed at room temperature in 1% Paraformaldehyde solution (dilute 8% PFA in serum free media to get 1%) and rocked for 10 minutes. 10×Glycine was added to the plate and allowed to sit for 5 minutes at room temperature. Cells were scraped down and cell suspension were transferred to a cold centrifuge tube for centrifugation at 720 RCF at 4° C. for 10 minutes. Cells were rinsed with 1X Phosphate buffer saline and centrifugation repeated. Cell pellet was next resuspended in lysis buffers described in (Medeiros et al., 2009) to obtain nuclei pellet. This was followed by chromatin sonication, using QSonica sonicator (model CL-188) for four cycles (30% amplitude for 15 secs ON and 30 secs OFF) to obtain DNA fragments with a length from 150 to 300 bp. 1/10th of the supernatant was stored as input control. ChIP was performed using Protein A magnetic beads (Dynabeads, Invitrogen #10001D) to couple […] ChIP-grade antibodies for SMAD1, SMAD3, H3K27me3, H3K4me3, or rabbit IgG antibody overnight at 4 °C. DNA was purified using the PureLink Quick PCR Purification kit (Thermo Fisher Cat #: K310001) and enrichment of DNA fragments analyzed via relative quantitative RT-PCR (qPCR) using ChIP primers (see Table 2) to specific locations. Negative and positive control regions were included in all analysis.

[1] = test system: 1-kb SOX2 promoter reporter; assay: pGL3-SOX2 promoter-reporter luciferase assay in HEK293 cells; type: cell-based, human
Procedure: HEK293 cells were transfected with the pGL3-SOX2 promoter-luciferase reporter plasmid construct and SV40-renilla for 24h. […] According to the manufacturer's instruction, cells were collected and lysed in […] passive lysis buffer. To measure luciferase activity, […] of lysate was added to […] of dual Luciferase Assay Reagent, and luminescence was quantitated using a luminometer (Biotek).

[2] = test system: Phosphorylated SMAD1 (pSMAD1); assay: SMAD1 phosphorylation (Western blot); type: cell-based, human
[3] = test system: SOX2 promoter methylation; assay: Methylation-specific qPCR of SOX2 promoter; type: cell-based, human; settings: for SOX2 promoter methylation, inhibitor alone: 5 μM
Procedure: Genomic DNA was extracted, and bisulfite conversion was performed on 500 ng of gDNA using the MethylAmp DNA modification kit according to manufacturer's instructions. Relative quantitative RT-PCR (qPCR) was performed with methylation-specific and unmethylation-specific primers (see Table 3).

[4] = test system: OC cells (PA1, OVCA420, and OVCAR3); assay: Live-dead analysis of anchorage-independent spheroids, TGF-β1/activin A; type: cell-based, human; settings: 1 nM TGFβ1, 10 nM activin, 24 hrs
Procedure: (§1) For Live/Dead analysis under anchorage independence, 1,000 cells were seeded in 96-well hydrogel-coated ultra-low attachment (ULA) plates (Corning #4515) for times indicated. Growth factor treatment was done under low serum 2.5% FBS condition (Cells were plated in 10% FBS to allow spheroid formation before beginning treatment). Cells were then stained with 2 μM Calcein-AM and 4 μM Ethidium-homodimer for 30 min before imaging. z-stacked images were obtained using the Zeiss LSM700 Confocal microscope (Microscopy and Flow Cytometry Core, University of South Carolina) and NIKON A1 Confocal microscope (UAB High Resolution Imaging Facility). Fluorescent quantification was performed using ImageJ Fiji software to calculate the Corrected Total Cell Fluorescent (CTCF)=Integrated Density−(Area of selected cell×Mean fluorescence of background readings) per spheroid.

HEYT30 cells [5] = assay: Paclitaxel cell viability with BMP9 in HEYT30 (FIG. 10, 13A); type: cell-based; settings: Homo sapiens, read-out: paclitaxel IC50 concentration
HEYT30 cells [6] = assay: CellTiter Glo 3D cell viability assay, paclitaxel with BMP9; settings: read-out: paclitaxel IC50 concentration, 3D conditions
HEY-T30 cells = assay: Flow cytometry, Annexin V / PI apoptosis; type: cell-based, human; settings: 3D, 48 hours; 10 nM BMP9, 300 nM paclitaxel or combination
Procedure: 700,000 cells were seeded in 60 mm poly-hema coated culture dishes, followed by incubation with 300 nM paclitaxel and 10 nM BMP9 alone or in simultaneous combination for 48 hours. Cells were centrifuged and resuspended in 1×binding buffer, followed by incubation with Annexin V and PI according to the manufacturer's procedure manual. The stained cell suspension was added to FACS tubes containing 200 μl 1×binding buffer and measured by BD LSRFortessa flow cytometer. The data were analyzed using BD FACSDiva (Becton Dickinson, NJ, USA) software. Annexin V-positive and PI-negative cells were considered to be in the early apoptotic phase, Annexin V-negative and PI-positive cells were considered to be in the necrosis phase, cells having positive staining for both Annexin-V and PI were considered to undergo late apoptosis and cells negative for Annexin V and PI were considered to be live cells.

PA1 cells = assay: Live/Dead analysis under anchorage independence (anoikis), PA1 cells; type: cell-based, human; settings: 10 nM for 24 hrs after 48 hours anchorage independence
Procedure: as §1

c1cc(-c2cnn3cc(-c4ccc(OCCN5CCCCC5)cc4)cnc23)ccn1 [DM, Dorsomorphin]
recovery in SOX2 levels in the presence of BMP9 (SOX2; PA1, 5 μM pretreatment 1 h, then rhBMP9 24 hours): 34.3%
recovery in SOX2 repression by BMP2 (SOX2): 23%

activin A: activin A, TGF-β family member
SMAD3 occupancy at p1, p3, p4, p5, p6 (ChIP) (SOX2 promoter): occupied by SMAD3
luciferase activity of SOX2 promoter reporter ([1]; 10 nM activin A, 24 hours): increased
SOX2 protein and mRNA expression (SOX2): increased

CC[C@H](C)n1cc(C)c2c(C(=O)NCc3c(C)cc(C)[nH]c3=O)cc(-c3ccc(N4CCNCC4)nc3)cc21 [GSK126]
SOX2 repression by BMP9 (SOX2; 5 μM GSK126, multiple cell lines): abrogated

CC(C)C[C@@H](C=O)NC(=O)[C@H](CC(C)C)NC(=O)[C@H](CC(C)C)NC(=O)OCc1ccccc1 [MG132] (Cbz-Leu-Leu-Leu-aldehyde)
effect on BMP's ability to repress SOX2 (SOX2; PA1, 0.5 μM MG132 1 hour, then rhBMP2/9): No effect

COc1ccc(-c2cnc3c(-c4cccc5ncccc45)cnn3c2)cc1 [ML347]
BMP9-induced phosphorylation of SMAD1 ([2]; 3 μM ML347): completely suppressed
suppression of BMP2-induced SMAD1 phosphorylation ([2]; 3 μM ML347): 40%
baseline SOX2 levels in the absence of exogenous ligand (SOX2; 3 μM ML347, PA1): increased
effect on SOX2 repression by BMP9 (SOX2): abrogated
recovery in SOX2 repression by BMP2 (SOX2): 72%

Nc1ncn([C@@H]2O[C@H](CO)[C@@H](O)[C@H]2O)c(=O)n1 [50-Aza, 50-azacytidine]
SOX2 mRNA downregulation by BMP9 (SOX2; PA1, 5 μM with 10 nM rhBMP9): suppressed
SOX2 mRNA, inhibitor alone (SOX2; SKOV3 cells, 5 μM): concomitant increase
BMP9-induced SOX2 transcriptional repression (SOX2; SKOV3 cells, 5 μM with 10 nM rhBMP9): repressed
BMP9-induced SOX2 promoter methylation ([3]; PA1, 5 μM 48 h pretreatment, then rhBMP9 24 h): abrogated
SOX2 promoter methylation, inhibitor alone ([3]; PA1 cells): minimal effect
SOX2 promoter methylation, inhibitor alone ([3]; SKOV3 cells, 48 hours): suppressed SOX2 promoter methylation significantly

NC(=O)c1ccc(-c2nc(-c3ccc4c(c3)OCO4)c(-c3ccccn3)[nH]2)cc1 [SB431542]
TGF-β1-induced H3K4me3 enrichment (ChIP) (SOX2 promoter; PA1, TGF-β1 + SB431542): abrogated
pSMAD1 in response to BMP2 and -9 ([2]; 5 μM inhibitor): no effects
TGF-β1-induced SOX2 increases (SOX2; 5 μM SB431542 1 h, then 400 pM TGF-β1 24 h): suppressed
effect on SOX2 repression by BMP9 (SOX2): did not significantly alter
effect on SOX2 repression by BMP2 (SOX2): did not alter

c1ccc2c(-c3cnn4cc(-c5ccc(N6CCNCC6)cc5)cnc34)ccnc2c1 [LDN193189]
BMP9-induced H3K27me3 occupancy on the SOX2 promoter (ChIP) (SOX2 promoter; PA1, rhBMP9 + LDN193189): significantly reduced
BMP2- and BMP9-induced SMAD1/5 phosphorylation ([2]; 0.8 μM LDN193189, PA1 and OVCAR3): Full inhibition
increase of SOX2 protein levels at baseline in the absence of exogenous ligand (SOX2; 0.8 μM LDN193189, PA1): 33
effect on SOX2 repression by BMP9 (SOX2): blocked
effect on SOX2 repression by BMP2 (SOX2): blocked

TGF-β1: transforming growth factor β1 ligand
live/dead ratio of spheroids [4]: increased
SMAD3 occupancy at p1, p3, p4, p5, p6 (ChIP) (SOX2 promoter): consistent SMAD3 enrichment
H3K4me3 at SMAD3 motifs p1, p3, p4, p5, p6 (ChIP) (SOX2 promoter; PA1, 1-h TGF-β1): enrichment
luciferase activity of SOX2 promoter reporter ([1]; TGF-β1 400 pM, 24 h): increased
SOX2 protein and mRNA expression (SOX2): increased

CC(=O)O[C@H]1C(=O)[C@@]2(C)[C@H]([C@H](OC(=O)c3ccccc3)[C@]3(O)C[C@H](OC(=O)[C@H](O)[C@@H](NC(=O)c4ccccc4)c4ccccc4)C(C)=C1C3(C)C)[C@]1(OC(C)=O)CO[C@@H]1C[C@@H]2O [paclitaxel]
IC50 (HEYT30 cells [5]; 24-hour pretreatment 1 nM BMP9, then combination 48 hours): 90.8 nM
IC50 (HEYT30 cells [5]; 24-hour pretreatment 5 nM BMP9, then combination 48 hours): 22.6 nM
IC50 (HEYT30 cells [5]; 24-hour pretreatment 10 nM BMP9, then combination 48 hours): 4.1 nM
IC50 (HEYT30 cells [5]; 48 h, simultaneous 1 nM BMP9, 48 hours): 91.7 nM
IC50 (HEYT30 cells [5]; 48 h, simultaneous 5 nM BMP9, 48 hours): 89 nM
IC50 (HEYT30 cells [5]; 48 h, simultaneous 10 nM BMP9, 48 hours): 73 nM
IC50 (HEYT30 cells [5]; 48 h, untreated control (no BMP9), simultaneous series, 48 hours): 107 nM
IC50 (HEYT30 cells [5]; untreated control (no BMP9), 24-hour pretreatment series): 113 nM
IC50 (HEYT30 cells [6]; 24-hour pretreatment 5 nM BMP9): 286 nM
IC50 (HEYT30 cells [6]; 24-hour pretreatment 10 nM BMP9): 211 nM
apoptosis in cells (HEY-T30 cells): 12.8%

B1: BMP10: recombinant human BMP10, highest sequence homology to BMP9 (protein, UniProt O95393 317-424, looked up)
Bone morphogenetic protein 10: NAKGNYCKRTPLYIDFKEIGWDSWIIAPPGYEAYECRGVCNYPLAEHLTPTKHAIIQALVHLKNSQKASKACCVPTKLEPISILYLDKGVVTYKFKYEGMAVSECGCR
activation of SMAD1/5 [2]: failed to activate
SOX2 protein and RNA levels (SOX2): did not alter
anoikis (PA1 cells): did not alter

B2: BMP4: recombinant human BMP4, BMP ligand (protein, UniProt P12644 293-408, looked up)
Bone morphogenetic protein 4: SPKHHSQRARKKNKNCRRHSLYVDFSDVGWNDWIVAPPGYQAFYCHGDCPFPLADHLNSTNHAIVQTLVNSVNSSIPKACCVPTELSAISMLYLDEYDKVVLKNYQEMVVEGCGCR
SOX2 protein and RNA levels (SOX2): downregulation
decrease of live-to-dead cell ratio (PA1 cells): 1.93
